Measured values: paper PMC9181887, “In Vitro Antithrombotic, Hematological Toxicity, and Inhibitor Studies of Protocatechuic, Isovanillic, and p-Hydroxybenzoic Acids from Maclura tricuspidata (Carr.) Bur” (Molecules, 2022)

Assays:
[1] = tested on: erythrocytes; assay: Hematological study, erythrocyte count by hemocytometer; format: cell-based; details: up to 200 μg/mL, 10 min, vs control
Description: Figure 1 Blood cytotoxic effect of PA (A), IVA (B), and 4-HA (C). Aliquots of washed platelets (10^3/mL), erythrocytes (10^6/mL), and leukocytes (10^3/mL) were treated with or without the compounds for 10 min and cell number was determined by hemocytometer counts. Each value is the mean ± SD of triplicate measurements. * p < 0.05 and ** p < 0.01, compared to each control groups. 10–500, 10–100 μg of each compound treated.
Total white blood cells (leukocytes) and red blood cells (erythrocytes) were counted using a hemocytometer, as previously described. Blood was diluted 1:200 with Hayem’s fluid and the cells were counted in a loaded hemocytometer chamber. To count the blood platelets, blood was diluted in a ratio of 1:20 with a diluting fluid, and four large (1 mm^2) corner squares of the hemocytometer were counted under a light microscope. Aliquots of leukocytes (0.1 mL; 10^3/mL), erythrocytes (0.1 mL; 10^6/mL), and platelets (0.1 mL; 10^3/mL) were treated with or without the compounds for 10 min.

[2] = tested on: fibrin clot formation (fibrinogen, thrombin, CaCl2); assay: Fibrin clot assay; format: biochemical, Human; details: 100 μg
Description: The fibrin clot assay, as previously described, was performed to evaluate the improvement in blood circulation by the attenuation of fibrin formation. First, 1.5% fibrinogen, 0.5 U/mL of thrombin, and 5 mM CaCl2 in 20 mM Tris-HCl in a volume of 100 μL were added to different concentrations of compounds or 10–20 IU u-PA as PC 1–2. These prepared fibrin clot mixtures were incubated at 37 °C for 30 min. Each tube of the fibrin clot mixture was photographed, and the density of the clots was measured using the ImageJ 1.46 b image analysis software (National Institutes of Health, Bethesda, MD, USA). Inhibitory activity was calculated as follows:Inhibitory activity (%) = [1 − (density control without sample−density sample)/density control without sample] × 100

[3] = target: T1, human FXIIIa (Homo sapiens, UniProt P00488); assay: FXIIIa activity and kinetic/inhibitor assay; format: biochemical; details: for FXIIIa activity: 1–20 μg, vs control, p < 0.05; for IC50 / Ki / Kik/Kiv / Kcat / Vmax: FXIIIa; for inhibition type against FXIIIa: from Kik/Kiv ratio and Lineweaver–Burk plots
T1 construct: purchased Sigma-Aldrich
T1 sequence (P00488 39-732 limits assumed): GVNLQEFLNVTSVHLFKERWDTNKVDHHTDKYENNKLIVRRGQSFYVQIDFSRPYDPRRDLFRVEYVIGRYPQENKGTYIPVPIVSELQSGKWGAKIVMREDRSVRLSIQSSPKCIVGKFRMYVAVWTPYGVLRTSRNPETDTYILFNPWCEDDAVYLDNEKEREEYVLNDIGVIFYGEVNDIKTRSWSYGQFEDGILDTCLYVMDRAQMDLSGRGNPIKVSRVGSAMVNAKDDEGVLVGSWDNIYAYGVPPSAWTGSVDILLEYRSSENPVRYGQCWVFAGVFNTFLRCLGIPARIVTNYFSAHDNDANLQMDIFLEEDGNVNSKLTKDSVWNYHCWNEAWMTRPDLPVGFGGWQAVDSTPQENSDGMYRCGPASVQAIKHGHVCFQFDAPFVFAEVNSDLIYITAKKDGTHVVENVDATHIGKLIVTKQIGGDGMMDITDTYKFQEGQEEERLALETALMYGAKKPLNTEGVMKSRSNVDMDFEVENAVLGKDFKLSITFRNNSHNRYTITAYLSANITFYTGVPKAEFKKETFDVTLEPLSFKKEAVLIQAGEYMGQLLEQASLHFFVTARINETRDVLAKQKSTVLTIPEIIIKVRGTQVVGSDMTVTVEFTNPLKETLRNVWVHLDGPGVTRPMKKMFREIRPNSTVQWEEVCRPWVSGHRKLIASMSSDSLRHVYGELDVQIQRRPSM
Description: To determine the thrombin activity, various concentrations of compounds were treated with 1 U human thrombin in 100 μL of 20 mM Tris-HCl, as previously described. The reaction solutions were incubated for 15 min at 37 °C. After the incubation, 1 mM chromogenic substrate for thrombin (S-2238, HD-Phe-Pip-Arg-p-nitroanilide) was added and incubated for 1 h at 37 °C. Absorbance was measured at 405 nm to determine the enzymatic activity. To determine FXa activity, various concentrations of the compounds were mixed with 1 U human FXa in 20 mM Tris-HCl (pH 7.4) in volume of 100 μL, followed by incubation for 15 min at 37 °C. After adding 1 mM N-benzoyl-Ile-Glu-Gly-Arg-p-nitroanilide, a highly specific chromogenic peptide substrate for FXa, the reaction solutions were incubated for 1 h at 37 °C. The residual activity of FXa was measured at 405 nm and is presented as a percentage of inhibition. To investigate FXIIIa activity, various concentrations of the compounds were mixed with 1 U human FXIIIa in 20 mM Tris-HCl (pH 7.4) in a volume of 100 μL, followed by, incubation for 15 min at 37 °C as previously described. The residual activity of FXIIIa was measured using casein and fibrinogen-HRP, according to the manufacturer’s instructions, and was presented as a percentage of inhibition. The negative control was generated by treatment with only thrombin, FXa, or FXIIIa without treatment with any compound.
Kinetic assays were performed using PA, IVA, and 4-HA for procoagulant proteases (thrombin and FXa) and fibrinoligase (FXIIIa). The kinetic constants were calculated using Lineweaver–Burk plots based on the initial reaction rates with different concentrations (0.1, 0.5, 1, and 2 mM) of each substrate for thrombin, FXa, and FXIIIa treated with or without the compounds (0.065, 0.13, 0.33, 0.65, and 1.30 mM [1–20 μg]) in a total volume of 100 μL. The Michaelis–Menten constant (Km) and maximal velocity (Vmax) were calculated from the x and y intercepts, respectively. […] The median inhibitory concentration (IC50) was defined as the concentration required to reach a 50% reduction in the activity of the three target factors. The Kik and Kiv inhibition constants were calculated using a previously described method. The inhibition type of the compounds against the three target factors was evaluated according to a previously described inhibition type definition.

[4] = tested on: diabetic rats; parameters: method as in PMID 20824965, PMID 9869276; details: cited from earlier work

Row | FXIIIa activity [3] | IC50 [3] [µM] | Ki [3] [µM] | Kik/Kiv [3] | Kcat ([3]; compound 0.065 mM (1 μg)) [s⁻¹] | Vmax ([3]; compound 0.065 mM (1 μg)) [mU/min] | Kcat ([3]; compound 0.13 mM (2 μg)) [s⁻¹] | Vmax ([3]; compound 0.13 mM (2 μg)) [mU/min] | Kcat ([3]; compound 0.325 mM (5 μg)) [s⁻¹] | Vmax ([3]; compound 0.325 mM (5 μg)) [mU/min] | Kcat ([3]; compound 0.65 mM (10 μg)) [s⁻¹] | Vmax ([3]; compound 0.65 mM (10 μg)) [mU/min] | Kcat ([3]; compound 1.3 mM (20 μg)) [s⁻¹] | Vmax ([3]; compound 1.3 mM (20 μg)) [mU/min] | inhibition type against FXIIIa [3] | SMILES | effect on the number of erythrocytes [1] | inhibition of fibrin clot formation [2] [%] | plasma glucose levels [4]
1 | significant reductions | 1920 | 1920 | 10.4 | 89.3 ± 0.09 | 0.143 ± 0.02 | 84.5 ± 0.07 | 0.135 ± 0.03 | 80.5 ± 0.05 | 0.129 ± 0.04 | 80.5 ± 0.09 | 0.129 ± 0.03 | 68.7 ± 0.08 | 0.110 ± 0.04 | non-competitive inhibition type | COc1ccc(C(=O)O)cc1O [IVA, isovanillic acid] | did not show any effect | 55.6 ± 1.7 | –
2 | significant reductions | 1960 | 1960 | 6005.6 | 88.6 ± 0.10 | 0.142 ± 0.04 | 87.7 ± 0.09 | 0.141 ± 0.04 | 77.2 ± 0.05 | 0.124 ± 0.03 | 70.5 ± 0.07 | 0.113 ± 0.03 | 62.0 ± 0.06 | 0.099 ± 0.04 | non-competitive inhibition type | O=C(O)c1ccc(O)cc1 [4-HA, 4-hydroxybenzoic acid] | – | 67.1 ± 1.3 | reducing plasma glucose levels in a dose-dependent manner

Row | SMILES | FXIIIa activity [3] | IC50 [3] [µM] | Ki [3] [µM] | Kik/Kiv [3] | Kcat ([3]; compound 0.065 mM (1 μg)) [s⁻¹] | Vmax ([3]; compound 0.065 mM (1 μg)) [mU/min] | Kcat ([3]; compound 0.13 mM (2 μg)) [s⁻¹] | Vmax ([3]; compound 0.13 mM (2 μg)) [mU/min] | Kcat ([3]; compound 0.325 mM (5 μg)) [s⁻¹] | Vmax ([3]; compound 0.325 mM (5 μg)) [mU/min] | Kcat ([3]; compound 0.65 mM (10 μg)) [s⁻¹] | Vmax ([3]; compound 0.65 mM (10 μg)) [mU/min] | Kcat ([3]; compound 1.3 mM (20 μg)) [s⁻¹] | Vmax ([3]; compound 1.3 mM (20 μg)) [mU/min] | inhibition type against FXIIIa [3] | effect on the number of erythrocytes [1] | inhibition of fibrin clot formation [2] [%] | plasma glucose levels [4]
3 | O=C(O)c1ccc(O)c(O)c1 [PA, protocatechuic acid] | significant reductions | 1640 | 1630 | 6.1 | 91.1 ± 0.03 | 0.146 ± 0.03 | 84.4 ± 0.06 | 0.135 ± 0.02 | 80.1 ± 0.05 | 0.128 ± 0.03 | 71.8 ± 0.07 | 0.115 ± 0.04 | 62.5 ± 0.04 | 0.100 ± 0.02 | non-competitive inhibition type | did not show any effect | 66.9 ± 3.3 | –
